Reference: ChEMBL document CHEMBL1132660, “Three-dimensional quantitative structure-activity relationship study on cyclic urea derivatives as HIV-1 protease inhibitors: application of comparative molecular field analysis” (J Med Chem, 1999)

Target: Human immunodeficiency virus type 1 protease (Human immunodeficiency virus 1, UniProt Q72874)
Assay: Inhibition of HIV-1 protease

## COc1cccc(N2C(=O)N(Cc3cccc(C(=O)Nc4ccccn4)c3)[C@H](Cc3ccccc3)[C@H](O)[C@@H](O)[C@H]2Cc2ccccc2)c1
  Ki: 0.047 nM

## COc1cccc(N2C(=O)N(Cc3cccc(C(=O)Nc4cnccn4)c3)[C@H](Cc3ccccc3)[C@H](O)[C@@H](O)[C@H]2Cc2ccccc2)c1
  Ki: 0.038 nM

## Nc1cccc(N2C(=O)N(Cc3cccc(C(=O)Nc4nc5ccccc5[nH]4)c3)[C@H](Cc3ccccc3)[C@H](O)[C@@H](O)[C@H]2Cc2ccccc2)c1
  Ki: 0.023 nM

## Nc1cccc(N2C(=O)N(Cc3cccc(C(=O)Nc4ncc[nH]4)c3)[C@H](Cc3ccccc3)[C@H](O)[C@@H](O)[C@H]2Cc2ccccc2)c1
  Ki: 0.012 nM

## Cc1ccc(NC(=O)c2cccc(CN3C(=O)N(c4cccc(N)c4)[C@H](Cc4ccccc4)[C@H](O)[C@@H](O)[C@H]3Cc3ccccc3)c2)nc1
  Ki: 0.075 nM

## COc1cc(OC)cc(N2C(=O)N(Cc3cccc(C(=O)Nc4cnccn4)c3)[C@H](Cc3ccccc3)[C@H](O)[C@@H](O)[C@H]2Cc2ccccc2)c1
  Ki: 2.51 nM

## CC(C)(C)CCN1C(=O)N(CCC(C)(C)C)[C@H](Cc2ccccc2)[C@H](O)[C@@H](O)[C@H]1Cc1ccccc1
  Ki: 36 nM

## Nc1cccc(N2C(=O)N(Cc3cccc(C(=O)Nc4cnccn4)c3)[C@H](Cc3ccccc3)[C@H](O)[C@@H](O)[C@H]2Cc2ccccc2)c1
  Ki: 0.016 nM

## COc1cccc(N2C(=O)N(Cc3cccc(C(=O)Nc4cccc(C)n4)c3)[C@H](Cc3ccccc3)[C@H](O)[C@@H](O)[C@H]2Cc2ccccc2)c1
  Ki: 0.053 nM

## O=C(Nc1ccccn1)c1cccc(CN2C(=O)N(c3cccc([N+](=O)[O-])c3)[C@H](Cc3ccccc3)[C@H](O)[C@@H](O)[C@H]2Cc2ccccc2)c1
  Ki: 0.096 nM

## COc1cc(OC)cc(N2C(=O)N(Cc3cccc(C(=O)Nc4ccccn4)c3)[C@H](Cc3ccccc3)[C@H](O)[C@@H](O)[C@H]2Cc2ccccc2)c1
  Ki: 0.86 nM

## O=C(NCC1CC1)c1cccc(CN2C(=O)N(Cc3cccc(C(=O)NCC4CC4)c3)[C@H](Cc3ccccc3)[C@H](O)[C@@H](O)[C@H]2Cc2ccccc2)c1
  Ki: 0.741 nM

## COc1cccc(N2C(=O)N(Cc3cccc(C(=O)Nc4ccc(C)cn4)c3)[C@H](Cc3ccccc3)[C@H](O)[C@@H](O)[C@H]2Cc2ccccc2)c1
  Ki: 0.069 nM

## COc1cc(OC)cc(N2C(=O)N(Cc3cccc(C(=O)Nc4ccc(C)cn4)c3)[C@H](Cc3ccccc3)[C@H](O)[C@@H](O)[C@H]2Cc2ccccc2)c1
  Ki: 1.9 nM

## O=C1N(Cc2ccc3ccccc3c2)[C@H](Cc2ccccc2)[C@H](O)[C@@H](O)[C@@H](Cc2ccccc2)N1C1CCCC1
  Ki: 0.28 nM

## O=C(NCc1ccccc1)c1cccc(CN2C(=O)N(Cc3cccc(C(=O)NCc4ccccc4)c3)[C@H](Cc3ccccc3)[C@H](O)[C@@H](O)[C@H]2Cc2ccccc2)c1
  Ki: 0.43 nM

## CC(C)(C)NC(=O)c1cccc(CN2C(=O)N(c3cccc(N)c3)[C@H](Cc3ccccc3)[C@H](O)[C@@H](O)[C@H]2Cc2ccccc2)c1
  Ki: 0.41 nM

## COc1cc(OC)cc(N2C(=O)N(Cc3cccc(C(=O)Nc4cccc(C)n4)c3)[C@H](Cc3ccccc3)[C@H](O)[C@@H](O)[C@H]2Cc2ccccc2)c1
  Ki: 0.7 nM

## N#CCNC(=O)c1cccc(CN2C(=O)N(C(=O)CNC(=O)c3ccccc3)[C@H](Cc3ccccc3)[C@H](O)[C@@H](O)[C@H]2Cc2ccccc2)c1
  Ki: 0.024 nM
